The values below come from US9375450B2, “Vaginal tissue rejuvenation compositions and methods” (priority 2011, dated 2016).

Structures are written as SMILES.

In assay [1] the test system is primary vaginal smooth muscle cells. As to the kind of experiment: Sircol collagen assay (cell culture surface deposited collagen). To be noted: 48 hours of treatment, mean±SD. It counts as cell-based, human. The procedure:
(§1) After removal of the uterus, full-thickness samples of the anterior vaginal wall were obtained from the vaginal cuff at the anterior midline portion under sterile condition from four women without POP. Specimens were preserved in cold DMEM/F12 (Invitrogen, Carlsbad, Calif.) supplemented with 10% FBS, 1 mM glutamine, 0.075% Na2HCO3 and 100 ug/ml penicillin-streptomycin. After a maximum time of 4 hours from tissue harvesting the tissue was mechanically minced in cold cultured media and the fragments were washed 3 times in PBS and were plated onto fibronectin coated plastic dishes (Thermo Fischer Scientific, Rochester, N.Y.). After the initial outgrowth, clones with a morphology resembling the smooth muscle phenotype were patch cloned and propagated in culture. For cell characterization a 5000 cell/well fibronectin coated 8-well chamber slide was plated. Once cell confluence reached 80% the cells were washed twice with PBS and fixed in 4% PFA for 30 min at 37° C. To verify the intracytoplasmic distribution of F-actin fibers 4% PFA fixed cells were exposed to a permeabilizing solution of Tryton X100 0.1% and Rhodamine Phalloidin for 45 min at 37° C. Slides were then treated with mounting media (Vectashield, Vector Laboratories, Burlingame, Calif.) containing DAPI for nucleic acid staining and image acquisition was performed in glycerol immersion by confocal microscopy. In addition, the 8-well chamber slides were used to carry out the immunocytochemical staining. After blockage of endogenous peroxidase activity with a solution of hydrogen peroxide and methanol, slides were sequentially treated with the primary mouse antibody, biotinylated anti-mouse immunoglobulin, and Streptavidin-biotin-peroxidase complex (LSAB™+/HRP kit, Dako, Carpinteria, Calif.). Diaminobenzidine was used as a chromogen in the presence of hydrogen peroxide. Slides were then counterstained with hematoxylin. All reactions were carried out at room temperature (22° C.). To identify the SMC, anti-smooth muscle actin antibodies were used (monoclonal mouse, 1:250, 30 min incubation, clone 1A4, catalog #0851 Dako, Carpinteria, Calif.). Caldesmon expression was studied with a monoclonal mouse antibody, 1:100, 30 min incubation, (clone h-CD catalog #M3557 Dako, Carpinteria, Calif.). An antigen retrieval step was used for caldesmon using citrate buffer and a steamer for 30 min. As a negative control normal mouse serum was substituted for the antibody.
The Sircol Assay (Biocolor Ltd., UK) is a dye-binding method designed for the analysis of acid and pepsin-soluble collagens. […]
The amount of collagen was determined by SIRCOL collagen assay according to manufacturer's instructions. […] Extracts were incubated with Sirius red dye and absorbance was determined at 555 nm with a spectrophotometer.

The test system is the same in assay [2]. As to the kind of experiment: MTT proliferation assay. To be noted: mean±SD. It is filed as cell-based, human. Here is the method: as §1
To perform the MTT proliferation assay, SMC from the fourth to sixth passages (5,000 cells per well) were cultured in 96-well culture plates (Costar, Cambridge, Mass.), in a total volume of 200 μL DMEM/F-12 with 10% FBS. Cells were incubated with zinc sulfate heptahydrate (Sigma, Saint Louis, Mo.) (10 μM, 20 μM and 50 μM), GW501516 (Alexis, Switzerland) (1 nM, 10 nM, 100 nM) in 96-well plates and cell proliferation was assessed by a 3-[4,5-dimethylthiazol-2-yl]-2,5-diphenyl tetrazoliumbromide (MTT) assay at 24 or 48 hrs utilizing a commercially available MTT assay kit (American Type Culture Collection, Catalog #30-1010K, Manassas, Va.). Treatment and control groups were performed in 6 replicate wells. The relative number of viable cells was determined at 24 or 48 hours by incubating the cells with 1 mg/mL of MTT for 4 hours. The live cells utilized MTT resulting in the accumulation of formazan crystals which were then solubilized with acid isopropanol (90% isopropyl alcohol, 2.5% SDS, 0.004 N HCL) for 1 hour. The optical density of the solution was measured at 570 nm.

Assay [3] relates to rat vaginal Col1a1, Col3a1, Col5a1 mRNA. As to the kind of experiment: qRT-PCR of vaginal collagen gene expression after 2 weeks vaginal suppositories. It is filed as in vivo. To be noted: OVX rats, vaginal suppositories 2 weeks, mean±SD; for ratio of vaginal Col1a1 to Col3a1 mRNA expression: placebo 0.78±0.2; for ratio of vaginal Col1a1 to Col5a1 mRNA expression: placebo 4.3±1.9.
Description: Ten to 12-weeks old female ovariectomized (OVX) Sprague-Dawley rats were utilized for the experiments. The animals were acclimatized to the environmental conditions before starting the experiment. The animals were housed individually and were allowed free access to water and rodent food. Two weeks after the ovariectomy rats (n=36) were divided into five groups: control (receiving placebo suppositories, n=8), Zinc (receiving zinc sulfate containing suppositories, n=8), GW (receiving GW501516 containing suppositories, n=8), Zinc with GW (receiving Zinc with GW 501516 containing suppositories, n=8) and Estradiol (receiving estradiol containing suppositories, n=4).
The suppositories were prepared according to the fusion method, using a polypeg suppository base (MEDISCA, N.Y., USA). […] Using a microwave, the suppository base was melted in a small beaker for 3 min and then transferred and kept into a water bath at a temperature of 55° C. The proper amount of above reagent was added to the liquefied base and meticulously crushed with a smooth rounded-end glass rod for about 20 min to make the solution to be even and clear. A pipette tip was used to suck some amount of solution and push it into a plastic tube with a diameter of 3.5 mm, and the tube was immediately left on the flat surface of an ice bucket. The suppository turned to white in color when it was solid. The moulded suppository was then pushed out of the tube using a round rod. The moulded suppository was cut using a razor blade to a length of 1.2 cm each, which was calibrated to equal a volume of 50±5 μl per each suppository. After 30 min of cooling at room temperature, the suppositories were stored at 4° C. in a closed chamber until use. They were left to reach room temperature before use.
The day after the last treatment the rats were overnight fasted and then sacrificed. Macroscopic measurement (genital hiatus, vaginal length) were taken and the vagina was dissected out carefully to avoid any injury to the vagina. The mid section of the vagina was utilized for histology (H and E stain, Masson's trichrome stain) and immunofluorescence and the rest of the vagina was used for RNA extraction and RT-PCR.
Total RNA was isolated from 20 mg of vaginal rat tissue in each experimental rat group using the RNeasy Mini kit (Qiagen) according to the manufacturer's specifications. For each total RNA preparation, DNase digestion was performed to remove contaminating genomic DNA. Total RNA samples from each tissue were quantified and evaluated for RNA integrity by the Agilent Bioanalyzer 2100 (Applied Biosystems, Foster City Calif., USA). Following RNA extraction, cDNA was reverse transcribed from ˜500 ng of each total RNA preparation using the qScript cDNA synthesis kit (Quanta Biosciences, Gaithersburg Md., USA). Finally, cDNA samples were used to perform gene expression analysis by qRT-PCR using SYBR Green technology on the RealPlex EP Mastercycler (Eppendorf, Germany) of five genes with known roles in vaginal tissue reconstruction: Collagen IaI (col 1a1), Collagen IIIaI (col 3a1), Collagen VaI (col 5a1), Elastin (eln), Tensin I (tns-1). Glyceraldehyde-3 Phosphate Dehydrogenase (gapdh) was used as a positive control to normalize the expression of each gene. Each qRT-PCR reaction was run in triplicate using Perfecta SYBR Green Supermix (Quanta Biosciences, Gaithersburg Md., USA) in 25 μL reaction volumes using a final concentration of 300 nM forward and reverse primers. For each of the genes analyzed in this study, primers were designed using Primer-BLAST software (NCBI) and synthesized by IDT Technologies (San Diego, Calif.).

For the molecule `O.O.O.O.O.O.O.O=S(=O)([O-])[O-].[Zn+2]` [zinc sulfate, zinc sulfate heptahydrate], the “cell culture surface deposited collagen production normalized to cell number (% of control)” value is 139.3±49 % of control in assay [1] (zinc sulfate 10 μM) and 129.6±27 % of control in assay [1] (zinc sulfate 20 μM). Besides, the “relative cell number (% of control)” value in assay [2] (10 μM, 48 hrs of culture) is reported as 94.7±4.6 % of control; in assay [2] (20 μM, 48 hrs of culture), 90.4±5.5 % of control; in assay [2] (50 μM, 48 hrs of culture) it was 43.3±30.0 % of control. Moreover, the “ratio of vaginal Col1a1 to Col3a1 mRNA expression” value in assay [3] was 0.95±0.1 relative units. Also, the “ratio of vaginal Col1a1 to Col5a1 mRNA expression” value in assay [3] is 9.7±2.5 relative units.
In the case of `Cc1cc(SCc2sc(-c3ccc(C(F)(F)F)cc3)nc2C)ccc1OCC(=O)O` [GW501516, 2-[2-methyl-4-([4-methyl-2-[4-(trifluoromethyl)phenyl)-1,3-thiazol-5-yl]methylsulfanyl]phenoxy]acetic acid], the results for the “cell culture surface deposited collagen production normalized to cell number (% of control)” value in assay [1] (GW 10 nM) and in assay [1] (GW 100 nM) were 151.0±22 % of control and 118.2±19 % of control, respectively. In addition, the “relative cell number (% of control)” value in assay [2] (1 nM, 24 hrs of culture) was 98.9±10.3 % of control; in assay [2] (10 nM, 24 hrs of culture), 95.9±6.5 % of control; in assay [2] (100 nM, 24 hrs of culture), 87.0±10.6 % of control. Moreover, the “ratio of vaginal Col1a1 to Col3a1 mRNA expression” value in assay [3] turned out to be 1.0±0.2 relative units. Besides, the “ratio of vaginal Col1a1 to Col5a1 mRNA expression” value in assay [3] came to 8.8±3.0 relative units.
